Source: patent US20110028518A1, “DEXLANSOPRAZOLE PROCESS AND POLYMORPHS” (DR. REDDY'S LABORATORIES LTD., priority 2008, published 2011)

Tests used:
(H+—K+)-ATPase = (H+—K+)-ATPase (Homo sapiens, UniProt P20648); conditions: Biochemical Pharmacology (1991), 42(10), 1875-8; cited from earlier work
[1] = Storage stability studies (Example 27): appearance, PXRD, HPLC purity, impurities and chiral purity; format: physicochemical; conditions: for Chiral Purity / Highest Impurity / Purity / Sulfide / Sulfone: HPLC
Description: (§1) A high performance liquid chromatography (HPLC) method for measuring the chemical purity of dexlansoprazole or a compound of formula (VII) of the present application, and for determination of their corresponding impurities, involves the use of a YMC-PAK ODS-A 100×4.6, 3 μm or equivalent column.
A high performance liquid chromatography method useful for measuring the enantiomeric purity of dexlansoprazole or a compound of formula (VII) of the present application involves the use of a Chiralpak-IC, 250×4.6 mm or equivalent column.
Products from certain of the above examples and a crystalline dexlansoprazole, prepared according to Example 2 of U.S. Pat. No. 6,462,058, were tested for their storage stabilities. The samples were stored in tied clear polyethylene bags that were placed in sealed black polyethylene bags along with a silica gel desiccant pouch filled with nitrogen, and finally the black bags were placed into triple laminated foil bags along with a silica gel pouch and then sealed and stored in HDPE drum packages under the conditions noted in the following results tables. Samples were analyzed before storage, at intervals during storage, and after storage.
Samples were analyzed by HPLC for chemical purity, for:
(§2) a “sulfide” impurity, having a chemical name 2-[[{4-(2,2,2-trifluoroethoxy)-3-methylpyridine-2-yl}methyl]thio]-1H-benzimidazole and the following structure;
(§3) a “sulfone” impurity, having a chemical name 2-[[{4-(2,2,2-trifluoroethoxy)-3-methylpyridine-2-yl}methyl]sulfonyl]-1H-benzimidazole and the following structure;
and for chiral purity. Also given in the tables is the concentration of the highest unidentified impurity, as determined by HPLC, and the PXRD analysis result. All percentages given below are expressed on a weight basis.

[2] = Storage stability studies (Example 28): water content and HPLC impurities; format: physicochemical
Description: as §1
A high performance liquid chromatography (HPLC) method for measuring the impurity at RRT 1.98, and having a mass number of m/z 467, in the present application involves the use of a YMC-PRO C-18 100×4.6 mm, 3 microns or equivalent column.
Dexlansoprazole obtained from Example 23 was tested for its storage stability. The samples were stored in a tied clear polyethylene bag, placed in a black polyethylene bag filled with N2 along with a silica desiccant pouch, and the black bag was placed into a triple laminated bag along with silica gel pouch and then sealed and stored in HDPE drum packaging under the conditions noted in the following results tables. Chemical purity of the samples was measured by HPLC before and after storage.
The following impurities were monitored during stability testing:
2-mercaptobenzimidazole (designated “2-MB) having the following structure;
a “nitrosulphoxide” impurity (designated “NS”) having the following structure;
as §2, §3
and an unidentified impurity at RRT (relative retention time) 1.98. Also given in the following tables are the concentration of the highest unidentified impurity as measured by HPLC, total impurities, and the water content. All results in the tables given below are expressed on a weight percent basis, and “ND” means not detected.

[3] = Bulk density (USP Test 616, method 2); format: physicochemical
Description: In an embodiment, the present application provides dexlansoprazole having bulk densities less than about 1 g/ml. Bulk density has been determined using Test 616 “Bulk Density and Tapped Density,” in United States Pharmacopoeia 29, United States Pharmacopeial Convention, Inc., Rockville, Md., 2005, in method 2.

[4] = Particle size distribution; format: physicochemical
Description: “10th volume percentile” as used herein, unless otherwise defined refers to the size of particles, below which 10% of the measured sample volume lies; “50th volume percentile” as used herein, unless otherwise defined refers to the size of particles, below which 50% of the measured samples volume lies, and “90th volume percentile” as used herein, unless otherwise defined refers to the size of particles, below which 90% of the measured samples volume lies.
Particle size distributions of dexlansoprazole particles may be measured with a Jayant Test Siever (e.g., using mesh number 60, mesh opening 250 μm). Particle size distributions of dexlansoprazole particles may also be measured using light scattering equipment such as a Malvern Master Sizer 2000 (helium neon laser source, dexlansoprazole suspended in light liquid paraffin, size range: 0.02 μm to 2000 μm). Other techniques are also useful.

[5] = Specific surface area by the BET method; format: physicochemical
Protocol: The specific surface area of dexlansoprazole of the present application has been measured by a BET (Brunauer, Emmett and Teller) specific surface method using a Micromeritics Gemini surface area analyzer, model 2365. Samples for analysis were degassed at 40° C. under reduced pressure and the determination of the adsorption of nitrogen gas at 77° K was measured for relative pressure in the range of 0.05-0.3.

[6] = Initial Analysis, before storage
[7] = At 25 ± 2° C. and 60 ± 5% Relative Humidity, 1 month
[8] = At 25 ± 2° C. and 60 ± 5% Relative Humidity, 2 months
[9] = At 25 ± 2° C. and 60 ± 5% Relative Humidity, 3 months
[10] = At 25 ± 2° C. and 60 ± 5% Relative Humidity, 15 days
[11] = At 25 ± 2° C. and 60 ± 5% Relative Humidity, 45 days
[12] = At 25 ± 2° C. and 60 ± 5% Relative Humidity, Initial
[13] = storage at 2-8° C. and at 25 ± 2° C./60 ± 5% RH, up to 3 months

Chain of (H+—K+)-ATPase (P20648 whole entry): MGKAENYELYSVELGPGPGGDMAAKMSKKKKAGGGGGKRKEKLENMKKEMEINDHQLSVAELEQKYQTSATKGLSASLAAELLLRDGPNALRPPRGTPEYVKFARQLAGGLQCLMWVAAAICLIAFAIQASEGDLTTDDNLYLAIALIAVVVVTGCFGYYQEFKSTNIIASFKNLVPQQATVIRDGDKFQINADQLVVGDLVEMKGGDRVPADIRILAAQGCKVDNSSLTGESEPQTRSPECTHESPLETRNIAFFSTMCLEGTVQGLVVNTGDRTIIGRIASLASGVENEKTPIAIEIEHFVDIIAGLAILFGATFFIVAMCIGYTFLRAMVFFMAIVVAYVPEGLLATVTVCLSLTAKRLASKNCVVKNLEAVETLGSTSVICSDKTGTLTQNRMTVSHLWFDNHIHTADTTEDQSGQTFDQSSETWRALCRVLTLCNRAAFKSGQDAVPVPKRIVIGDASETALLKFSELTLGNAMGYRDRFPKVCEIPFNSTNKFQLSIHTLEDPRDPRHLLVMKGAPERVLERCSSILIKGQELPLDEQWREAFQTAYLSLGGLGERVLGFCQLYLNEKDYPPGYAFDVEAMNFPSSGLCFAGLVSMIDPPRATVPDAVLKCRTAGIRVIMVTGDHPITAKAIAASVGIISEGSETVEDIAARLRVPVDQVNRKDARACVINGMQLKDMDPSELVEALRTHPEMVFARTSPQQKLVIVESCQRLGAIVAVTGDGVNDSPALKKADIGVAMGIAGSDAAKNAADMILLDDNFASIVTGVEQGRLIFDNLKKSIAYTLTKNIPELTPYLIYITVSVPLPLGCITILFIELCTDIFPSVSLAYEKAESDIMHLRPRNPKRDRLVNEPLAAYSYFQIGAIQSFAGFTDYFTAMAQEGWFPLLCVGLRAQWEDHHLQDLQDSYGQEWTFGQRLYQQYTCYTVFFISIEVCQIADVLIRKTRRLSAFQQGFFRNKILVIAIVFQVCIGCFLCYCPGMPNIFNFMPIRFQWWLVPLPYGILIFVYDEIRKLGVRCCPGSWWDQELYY
Chain of (H+—K+)-ATPase (P51164 whole entry partner): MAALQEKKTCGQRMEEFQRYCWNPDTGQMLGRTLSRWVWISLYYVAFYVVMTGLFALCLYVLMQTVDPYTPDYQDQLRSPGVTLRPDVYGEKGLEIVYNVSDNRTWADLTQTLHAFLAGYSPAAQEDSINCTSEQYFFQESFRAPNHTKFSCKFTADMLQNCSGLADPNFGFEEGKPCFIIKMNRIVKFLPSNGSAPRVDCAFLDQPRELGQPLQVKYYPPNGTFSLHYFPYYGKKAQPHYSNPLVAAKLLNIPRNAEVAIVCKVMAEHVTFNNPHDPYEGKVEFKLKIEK

Cc1c(OCC(F)(F)F)ccnc1C[S@@+]([O-])c1nc2ccccc2[nH]1 [Dexlansoprazole, (R)-2-[[[3-methyl-4-(2,2,2-trifluoroethoxy)-2-pyridinyl]methyl]sulfinyl]-1H-benzimidazole]
antisecretory activity due to the inhibition of (H+—K+)-ATPase ((H+—K+)-ATPase): antisecretory activity

Cc1c(OCC(F)(F)F)ccnc1C[S@@+]([O-])c1nc2ccccc2[nH]1 [Example 16 (A), dexlansoprazole]
Appearance ([1]; After 1 Week at 2-8° C.): Light brown | PXRD ([1]; After 1 Week at 2-8° C.): Amorphous | Chiral Purity ([1]; After 1 Week at 2-8° C.): 96.57% | Highest Impurity ([1]; After 1 Week at 2-8° C.): 0.09% | Purity ([1]; After 1 Week at 2-8° C.): 83.76% | Sulfide ([1]; After 1 Week at 2-8° C.): 13.78% | Sulfone ([1]; After 1 Week at 2-8° C.): 1.48% | Appearance ([1]; After 1 Week at 25-35° C.): Light brown | PXRD ([1]; After 1 Week at 25-35° C.): Amorphous | Chiral Purity ([1]; After 1 Week at 25-35° C.): 96.56% | Highest Impurity ([1]; After 1 Week at 25-35° C.): 0.14% | Purity ([1]; After 1 Week at 25-35° C.): 83.03% | Sulfide ([1]; After 1 Week at 25-35° C.): 13.83% | Sulfone ([1]; After 1 Week at 25-35° C.): 1.55% | Appearance ([1]; After 2 Weeks at 2-8° C.): Light brown | PXRD ([1]; After 2 Weeks at 2-8° C.): Amorphous | Chiral Purity ([1]; After 2 Weeks at 2-8° C.): 96.86% | Highest Impurity ([1]; After 2 Weeks at 2-8° C.): 0.17% | Purity ([1]; After 2 Weeks at 2-8° C.): 83.6% | Sulfide ([1]; After 2 Weeks at 2-8° C.): 13.63% | Sulfone ([1]; After 2 Weeks at 2-8° C.): 1.45% | Appearance ([1]; After 2 Weeks at 25-35° C.): Light brown | PXRD ([1]; After 2 Weeks at 25-35° C.): Amorphous | Chiral Purity ([1]; After 2 Weeks at 25-35° C.): 96.49% | Highest Impurity ([1]; After 2 Weeks at 25-35° C.): 1.16% | Purity ([1]; After 2 Weeks at 25-35° C.): 80.85% | Sulfide ([1]; After 2 Weeks at 25-35° C.): 13.8% | Sulfone ([1]; After 2 Weeks at 25-35° C.): 1.49% | Appearance ([1]; After 3 Weeks at 2-8° C.): Light brown | PXRD ([1]; After 3 Weeks at 2-8° C.): Amorphous | Chiral Purity ([1]; After 3 Weeks at 2-8° C.): 96.73% | Highest Impurity ([1]; After 3 Weeks at 2-8° C.): 0.07% | Purity ([1]; After 3 Weeks at 2-8° C.): 83.9% | Sulfide ([1]; After 3 Weeks at 2-8° C.): 13.69% | Sulfone ([1]; After 3 Weeks at 2-8° C.): 1.5% | Appearance ([1]; After 3 Weeks at 25-35° C.): Light brown | PXRD ([1]; After 3 Weeks at 25-35° C.): Amorphous | Chiral Purity ([1]; After 3 Weeks at 25-35° C.): 96.67% | Highest Impurity ([1]; After 3 Weeks at 25-35° C.): 0.8% | Purity ([1]; After 3 Weeks at 25-35° C.): 82.07% | Sulfide ([1]; After 3 Weeks at 25-35° C.): 13.69% | Sulfone ([1]; After 3 Weeks at 25-35° C.): 1.51% | Appearance [1, 6]: Light brown | PXRD [1, 6]: Amorphous | Chiral Purity [1, 6]: 96.59% | Highest Impurity [1, 6]: 0.08% | Purity [1, 6]: 84.42% | Sulfide [1, 6]: 13.43% | Sulfone [1, 6]: 1.45%

Cc1c(OCC(F)(F)F)ccnc1C[S@@+]([O-])c1nc2ccccc2[nH]1 [Example 23, dexlansoprazole]
2-MB ([2]; At 2-8° C., 1 month): 0.04 weight percent | Highest Impurity ([2]; At 2-8° C., 1 month): 0.07 weight percent | RRT 1.98 ([2]; At 2-8° C., 1 month): 0.06 weight percent | Sulfide ([2]; At 2-8° C., 1 month): 0.45 weight percent | Sulfone ([2]; At 2-8° C., 1 month): 0.57 weight percent | Total impurities ([2]; At 2-8° C., 1 month): 1.54 weight percent | Water ([2]; At 2-8° C., 1 month): 3.54 weight percent | 2-MB ([2]; At 2-8° C., 2 months): 0.03 weight percent | Highest Impurity ([2]; At 2-8° C., 2 months): 0.07 weight percent | RRT 1.98 ([2]; At 2-8° C., 2 months): 0.06 weight percent | Sulfide ([2]; At 2-8° C., 2 months): 0.50 weight percent | Sulfone ([2]; At 2-8° C., 2 months): 0.61 weight percent | Total impurities ([2]; At 2-8° C., 2 months): 1.76 weight percent | Water ([2]; At 2-8° C., 2 months): 2.61 weight percent | 2-MB ([2]; At 2-8° C., 3 months): 0.02 weight percent | Highest Impurity ([2]; At 2-8° C., 3 months): 0.07 weight percent | RRT 1.98 ([2]; At 2-8° C., 3 months): 0.06 weight percent | Sulfide ([2]; At 2-8° C., 3 months): 0.48 weight percent | Sulfone ([2]; At 2-8° C., 3 months): 0.59 weight percent | Total impurities ([2]; At 2-8° C., 3 months): 1.63 weight percent | Water ([2]; At 2-8° C., 3 months): 2.24 weight percent | 2-MB ([2]; At 2-8° C., Initial): 0.02 weight percent | Highest Impurity ([2]; At 2-8° C., Initial): 0.07 weight percent | RRT 1.98 ([2]; At 2-8° C., Initial): 0.03 weight percent | Sulfide ([2]; At 2-8° C., Initial): 0.47 weight percent | Sulfone ([2]; At 2-8° C., Initial): 0.59 weight percent | Total impurities ([2]; At 2-8° C., Initial): 1.42 weight percent | Water ([2]; At 2-8° C., Initial): 2.90 weight percent | 2-MB [2, 7]: 0.05 weight percent | Highest Impurity [2, 7]: 0.09 weight percent | RRT 1.98 [2, 7]: 0.14 weight percent | Sulfide [2, 7]: 0.47 weight percent | Sulfone [2, 7]: 0.55 weight percent | Total impurities [2, 7]: 1.80 weight percent | Water [2, 7]: 2.89 weight percent | 2-MB [2, 8]: 0.04 weight percent | Highest Impurity [2, 8]: 0.07 weight percent | RRT 1.98 [2, 8]: 0.15 weight percent | Sulfide [2, 8]: 0.50 weight percent | Sulfone [2, 8]: 0.61 weight percent | Total impurities [2, 8]: 1.99 weight percent | Water [2, 8]: 1.54 weight percent | 2-MB [2, 9]: 0.04 weight percent | Highest Impurity [2, 9]: 0.07 weight percent | RRT 1.98 [2, 9]: 0.17 weight percent | Sulfide [2, 9]: 0.50 weight percent | Sulfone [2, 9]: 0.61 weight percent | Total impurities [2, 9]: 1.89 weight percent | Water [2, 9]: 1.50 weight percent | 2-MB [2, 10]: 0.03 weight percent | Highest Impurity [2, 10]: 0.08 weight percent | RRT 1.98 [2, 10]: 0.09 weight percent | Sulfide [2, 10]: 0.50 weight percent | Sulfone [2, 10]: 0.61 weight percent | Total impurities [2, 10]: 1.76 weight percent | Water [2, 10]: 1.68 weight percent | 2-MB [2, 11]: 0.04 weight percent | Highest Impurity [2, 11]: 0.06 weight percent | RRT 1.98 [2, 11]: 0.14 weight percent | Sulfide [2, 11]: 0.52 weight percent | Sulfone [2, 11]: 0.64 weight percent | Total impurities [2, 11]: 1.93 weight percent | Water [2, 11]: 1.29 weight percent | 2-MB [2, 12]: 0.02 weight percent | Highest Impurity [2, 12]: 0.07 weight percent | RRT 1.98 [2, 12]: 0.03 weight percent | Sulfide [2, 12]: 0.47 weight percent | Sulfone [2, 12]: 0.59 weight percent | Total impurities [2, 12]: 1.42 weight percent | Water [2, 12]: 2.90 weight percent | Appearance during stability testing [2, 13]: maintained their initial cream color powder form | Physical form during stability testing [2, 13]: remained in an amorphous form

Cc1c(OCC(F)(F)F)ccnc1C[S@@+]([O-])c1nc2ccccc2[nH]1 [Example 24, dexlansoprazole]
Bulk density ([3]; after tapping): 0.65 g/mL | Bulk density ([3]; before tapping): 0.47 g/mL | Particle size distribution d(0.1) [4]: 0.896 μm | Particle size distribution d(0.5) [4]: 5.308 μm | Particle size distribution d(0.9) [4]: 12.938

Cc1c(OCC(F)(F)F)ccnc1C[S@@+]([O-])c1nc2ccccc2[nH]1 [Example 25, dexlansoprazole]
specific surface area by the BET method [5]: 1.0608 m^2/g
